Key:
P. aeruginosa = assay: Quantitative PCR analysis of relative bacterial levels in treated biofilms; type: cell-based, Pseudomonas aeruginosa PAO1; conditions: DNA extraction and quantitative PCR of treated mixed biofilm; Control 46.8
Method: (§1) Pseudomonas aeruginosa PAO1 (ATCC number: BAA-47), Enterococcus faecalis V583 (ATCC number: 700802), and Staphylococcus aureus Mu50 (ATCC number: 700699) grown on agar plates made from tryptic soy broth (TSB, Sigma Chemical Co., St. Louis, Mo., USA) were inoculated into TSB broth and grown at 37° C. in a shaker for 16 hr. An aliquot was diluted in TSB broth to a series of dilutions for each individual bacteria type. The diluted bacteria were plated out to count colony forming units (CFU). They were further diluted to 1×10^6 cfu ml^−1 and mixed equally as inoculums. Bolton broth (Oxoid Ltd, Basingstock, Hampshire, England) with 50% Bovine plasma (Biomeda, Foster City, Calif., USA) was used for biofilm formation media. […]
(§2) In a series of runs the formed biofilms were washed and then incubated with the three CAZS solutions, then associated with a 30 μg/ml solution of Gentamicin sulfate (MP Biomedicals, Illkirch, France) in distilled water, or with a 20 ppm solution of 2,4,4′-trichloro-2-hydroxydiphenyl ether (Triclosan, KIC Chemicals, New Paltz, N.Y., USA) dissolved in propylene glycol (ScienceLab, Houston, Tex., USA). […] The biomass dry weight was measured as the total weight minus the empty tube weight measured before use. […] A separate set of tubes in triplicate was used for DNA extraction and quantitative PCR analysis to determine relative bacterial levels in the treated biofilms.

[1] = system: biofilms of Pseudomonas aeruginosa PAO1, Enterococcus faecalis V583 and Staphylococcus aureus Mu50; assay: Biofilm dry weight after incubation of formed three-species biofilms with treatments; type: cell-based; conditions: biomass dry weight of treated mixed biofilm, 80° C. 48 hours drying; incubation 37° C., 140 rpm; triplicate; Control 126
Method: as §1, §2

S. aureus = assay: Quantitative PCR analysis of relative bacterial levels in treated biofilms; type: cell-based, Staphylococcus aureus Mu50; conditions: DNA extraction and quantitative PCR of treated mixed biofilm; Control 23.5
E. faecalis = assay: as above; type: cell-based, Enterococcus faecalis V583; conditions: DNA extraction and quantitative PCR of treated mixed biofilm; Control 29.7
Method: as §1, §2

| Molecule | Relative Bacterial Levels P. aeruginosa (P. aeruginosa) | Dry Weight [1] | Relative Bacterial Levels S. aureus (S. aureus) | Relative Bacterial Levels E. faecalis (E. faecalis) |
| --- | --- | --- | --- | --- |
| Oc1cc(Cl)ccc1Oc1ccc(Cl)cc1Cl [20 ppm Triclosan, 2,4,4′-trichloro-2-hydroxydiphenyl ether] | 60.0 | 88 mg | 0.13 | 39.9 |
| Gentamicin sulfate [20 mg/ml Gentamicin] | 0.2 | 78 mg | 49.6 | 50.3 |

— patent US9700344B2, “Method for treating chronic wounds with an extracellular polymeric substance solvating system” (priority 2008, dated 2017)
